US12139492B2 (Endotarget Inc., priority 2021, dated 2024)

Tests used:
Format in all cases: cell-based
JeKo-1 cells = test: Antiproliferative effect, MTS cell viability assay, JeKo-1 cells; conditions: Homo sapiens; JeKo-1 mantle cell lymphoma cells; read-out: IC50 (anti-proliferation) JeKO-1 cells
How it was run: (§1)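 Mino and JeKo-1 mantle B-cell lymphoma lines were exposed to compound at 0, 0.001, 0.01, 0.1, 1 and 10 μM for 72 h. Viability was read by MTS reduction to formazan, measured as absorbance at 490 nm.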

Mino cells = test: Antiproliferative effect, MTS cell viability assay, Mino cells; conditions: Homo sapiens, MINO, Mino mantle cell lymphoma cells; read-out: IC50 (anti-proliferation) Mino cells
How it was run: as §1

BTK = BTK (Homo sapiens, UniProt Q06187); test: BTK degradation, DC50 and Dmax of Table 1 (cell line not given); set-up: endogenous in cells; conditions: for DC50: concentration giving 50% reduction of BTK expression level
Sequence of BTK (Q06187 whole entry): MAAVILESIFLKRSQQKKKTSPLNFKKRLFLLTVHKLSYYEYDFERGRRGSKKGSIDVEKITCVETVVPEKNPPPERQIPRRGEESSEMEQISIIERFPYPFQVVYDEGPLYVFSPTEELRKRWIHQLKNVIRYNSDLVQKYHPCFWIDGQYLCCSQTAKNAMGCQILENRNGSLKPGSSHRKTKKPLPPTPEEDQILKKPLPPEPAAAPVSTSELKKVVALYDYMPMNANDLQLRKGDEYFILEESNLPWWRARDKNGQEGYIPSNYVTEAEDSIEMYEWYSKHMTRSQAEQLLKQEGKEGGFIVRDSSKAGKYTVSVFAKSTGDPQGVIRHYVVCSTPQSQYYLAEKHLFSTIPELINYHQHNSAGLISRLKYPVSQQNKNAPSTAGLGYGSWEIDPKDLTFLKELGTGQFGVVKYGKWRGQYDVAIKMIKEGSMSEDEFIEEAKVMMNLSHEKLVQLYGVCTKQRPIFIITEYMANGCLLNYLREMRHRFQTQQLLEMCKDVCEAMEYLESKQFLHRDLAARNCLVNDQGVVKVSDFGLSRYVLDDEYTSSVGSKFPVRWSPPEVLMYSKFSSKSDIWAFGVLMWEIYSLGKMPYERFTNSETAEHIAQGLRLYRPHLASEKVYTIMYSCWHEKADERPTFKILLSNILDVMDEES

| Compound | IC50 (JeKo-1 cells) [µM] | IC50 (Mino cells) [µM] | Dmax (BTK) [%] | DC50 (BTK) [µM] |
| --- | --- | --- | --- | --- |
| Nc1ncnc2c1c(-c1ccc(Oc3ccccc3)cc1)nn2C1CCN(C(=O)N2CCC(CCCN3CCN(c4ccc5c(c4)C(=O)N(C4CCC(=O)NC4=O)C5=O)CC3)CC2)CC1 (centres unmarked) [Compound 117, 5-(4-(3-(1-(4-(4-amino-3-(4-phenoxyphenyl)-1H-pyrazolo[3,4-d]pyrimidin-1-yl)piperidine-1-carbonyl)-piperidin-4-yl)propyl)piperazin-1-yl)-2-(2,6-dioxopiperidin-3-yl)isoindoline-1,3-dione] | 1 to 10 | 1 to 10 | > 75 | > 0.05 |
| Nc1ncnc2c1c(-c1ccc(Oc3ccccc3)cc1)nn2[C@@H]1CCCN(C(=O)N2CCC(CCN3CCC(c4ccc5c(c4)C(=O)N(C4CCC(=O)NC4=O)C5=O)CC3)CC2)C1 (stereo partly drawn) [Compound 73, 5-(1-(2-(1-((R)-3-(4-amino-3-(4-phenoxyphenyl)-1H-pyrazolo[3,4-d]pyrimidin-1-yl)piperidine-1-carbonyl)piperidin-4-yl)ethyl)piperidin-4-yl)-2-(2,6-dioxopiperidin-3-yl)isoindoline-1,3-dione] | > 10 | 1 to 10 | > 90 | 0.01 to 0.05 |
| Nc1ncnc2c1c(-c1ccc(Oc3ccccc3)cc1)nn2[C@@H]1CCCN(C2CCN(CCCN3CCC(c4ccc5c(c4)CN(C4CCC(=O)NC4=O)C5=O)CC3)CC2)C1 (stereo partly drawn) [Compound 154, 3-(5-(1-(3-((R)-3-(4-amino-3-(4-phenoxyphenyl)-1H-pyrazolo[3,4-d]pyrimidin-1-yl)-[1,4′-bipiperidin]-1′-yl)propyl)piperidin-4-yl)-1-oxoisoindolin-2-yl)piperidine-2,6-dione] | > 10 | > 10 | > 75 | > 0.05 |
| Nc1ncnc2c1c(-c1ccc(Oc3ccccc3)cc1)nn2[C@@H]1CCCN(C2CCN(C(=O)N3CCN(CCN4CCN(c5ccc6c(c5)CN(C5CCC(=O)NC5=O)C6=O)CC4)CC3)CC2)C1 (stereo partly drawn) [Compound 176, 3-(5-(4-(2-(4-((R)-3-(4-amino-3-(4-phenoxyphenyl)-1H-pyrazolo[3,4-d]pyrimidin-1-yl)-[1,4′-bipiperidine]-1′-carbonyl)piperazin-1-yl)ethyl)piperazin-1-yl)-1-oxoisoindolin-2-yl)piperidine-2,6-dione] | 1 to 10 | 1 to 10 | > 90 | > 0.05 |
| Nc1ncnc2c1c(-c1ccc(Oc3ccccc3)cc1)nn2[C@@H]1CCCN(C2CCN(C(=O)N3CCC(CC4CCN(c5ccc6c(c5)CN(C5CCC(=O)NC5=O)C6=O)CC4)CC3)CC2)C1 (stereo partly drawn) [Compound 168, 3-(5-(4-((1-((R)-3-(4-amino-3-(4-phenoxyphenyl)-1H-pyrazolo[3,4-d]pyrimidin-1-yl)-[1,4′-bipiperidine]-1′-carbonyl)piperidin-4-yl)methyl)piperidin-1-yl)-1-oxoisoindolin-2-yl)piperidine-2,6-dione] | 1 to 10 | < 1 | > 90 | 0.01 to 0.05 |
| Nc1ncnc2c1c(-c1ccc(Oc3ccccc3)cc1)nn2C1CCN(CCOCCC2CCN(c3ccc4c(c3)CN(C3CCC(=O)NC3=O)C4=O)CC2)CC1 (centres unmarked) [Compound 20, 3-(5-(4-(2-(2-(4-(4-amino-3-(4-phenoxyphenyl)-1H-pyrazolo[3,4-d]pyrimidin-1-yl)piperidin-1-yl)ethoxy)ethyl)piperidin-1-yl)-1-oxoisoindolin-2-yl)piperidine-2,6-dione] | 1 to 10 | 1 to 10 | > 90 | 0.01 to 0.05 |
| Nc1ncnc2c1c(-c1ccc(Oc3ccccc3)cc1)nn2C1CCN(C(=O)N2CCN(CCC3CCN(c4ccc5c(c4)C(=O)N(C4CCC(=O)NC4=O)C5=O)CC3)CC2)CC1 (centres unmarked) [Compound 97, 5-(4-(2-(4-(4-(4-amino-3-(4-phenoxyphenyl)-1H-pyrazolo[3,4-d]pyrimidin-1-yl)piperidine-1-carbonyl)piperazin-1-yl)ethyl)piperidin-1-yl)-2-(2,6-dioxopiperidin-3-yl)isoindoline-1,3-dione] | 1 to 10 | 1 to 10 | > 90 | 0.01 to 0.05 |
| Nc1ncnc2c1c(-c1ccc(Oc3ccccc3)cc1)nn2[C@@H]1CCCN(C2CCN(CCCC3CCN(c4ccc5c(c4)CN(C4CCC(=O)NC4=O)C5=O)CC3)CC2)C1 (stereo partly drawn) [Compound 156, 3-(5-(4-(3-((R)-3-(4-amino-3-(4-phenoxyphenyl)-1H-pyrazolo[3,4-d]pyrimidin-1-yl)-[1,4′-bipiperidin]-1′-yl)propyl)piperidin-1-yl)-1-oxoisoindolin-2-yl)piperidine-2,6-dione] | > 10 | > 10 | > 50 | > 0.05 |
| Nc1ncnc2c1c(-c1ccc(Oc3ccccc3)cc1)nn2[C@@H]1CCCN(CC2CCN(CCCN3CCN(c4ccc5c(c4)CN(C4CCC(=O)NC4=O)C5=O)CC3)CC2)C1 (stereo partly drawn) [Compound 138, 3-(5-(4-(3-(4-(((R)-3-(4-amino-3-(4-phenoxyphenyl)-1H-pyrazolo[3,4-d]pyrimidin-1-yl)piperidin-1-yl)methyl)piperidin-1-yl)propyl)piperazin-1-yl)-1-oxoisoindolin-2-yl)piperidine-2,6-dione] | > 10 | 1 to 10 | > 75 | 0.01 to 0.05 |
| Nc1ncnc2c1c(-c1ccc(Oc3ccccc3)cc1)nn2C1CCCN(CCOCCOCCN2CCC(c3ccc4c(c3)C(=O)N(C3CCC(=O)NC3=O)C4=O)CC2)C1 (centres unmarked) [Compound 13, 5-(1-(2-(2-(2-(3-(4-amino-3-(4-phenoxyphenyl)-1H-pyrazolo[3,4-d]pyrimidin-1-yl)piperidin-1-yl)ethoxy)ethoxy)ethyl)piperidin-4-yl)-2-(2,6-dioxopiperidin-3-yl)isoindoline-1,3-dione] | 1 to 10 | 1 to 10 | > 75 | 0.01 to 0.05 |
| Nc1ncnc2c1c(-c1ccc(Oc3ccccc3)cc1)nn2C1CCN(CCOCCN2CCC(c3ccc4c(c3)CN(C3CCC(=O)NC3=O)C4=O)CC2)CC1 (centres unmarked) [Compound 12, 3-(5-(1-(2-(2-(4-(4-amino-3-(4-phenoxyphenyl)-1H-pyrazolo[3,4-d]pyrimidin-1-yl)piperidin-1-yl)ethoxy)ethyl)piperidin-4-yl)-1-oxoisoindolin-2-yl)piperidine-2,6-dione] | < 1 | < 1 | > 90 | 0.01 to 0.05 |
| Nc1ncnc2c1c(-c1ccc(Oc3ccccc3)cc1)nn2C1CCCN(CCOCCN2CCN(c3ccc4c(c3)C(=O)N(C3CCC(=O)NC3=O)C4=O)CC2)C1 (centres unmarked) [Compound 7, 5-(4-(2-(2-(3-(4-amino-3-(4-phenoxyphenyl)-1H-pyrazolo[3,4-d]pyrimidin-1-yl)piperidin-1-yl)ethoxy)ethyl)piperazin-1-yl)-2-(2,6-dioxopiperidin-3-yl)isoindoline-1,3-dione] | 1 to 10 | 1 to 10 | > 75 | 0.01 to 0.05 |
| Nc1ncnc2c1c(-c1ccc(Oc3ccccc3)cc1)nn2[C@@H]1CCCN(C(=O)N2CCN(CC3CCN(c4ccc5c(c4)CN(C4CCC(=O)NC4=O)C5=O)CC3)CC2)C1 (stereo partly drawn) [Compound 58, 3-(5-(4-((4-((R)-3-(4-amino-3-(4-phenoxyphenyl)-1H-pyrazolo[3,4-d]pyrimidin-1-yl)piperidine-1-carbonyl)piperazin-1-yl)methyl)piperidin-1-yl)-1-oxoisoindolin-2-yl)piperidine-2,6-dione] | < 1 | < 1 | > 90 | 0.01 to 0.05 |
| Nc1ncnc2c1c(-c1ccc(Oc3ccccc3)cc1)nn2C1CCCN(CCOCCN2CCN(c3ccc4c(c3)CN(C3CCC(=O)NC3=O)C4=O)CC2)C1 (centres unmarked) [Compound 8, 3-(5-(4-(2-(2-(3-(4-amino-3-(4-phenoxyphenyl)-1H-pyrazolo[3,4-d]pyrimidin-1-yl)piperidin-1-yl)ethoxy)ethyl)piperazin-1-yl)-1-oxoisoindolin-2-yl)piperidine-2,6-dione] | 1 to 10 | 1 to 10 | > 90 | 0.01 to 0.05 |
| Nc1ncnc2c1c(-c1ccc(Oc3ccccc3)cc1)nn2[C@@H]1CCCN(C2CCN(C(=O)N3CCC(CCC4CCN(c5ccc6c(c5)C(=O)N(C5CCC(=O)NC5=O)C6=O)CC4)CC3)CC2)C1 (stereo partly drawn) [Compound 185, 5-(4-(2-(1-((R)-3-(4-amino-3-(4-phenoxyphenyl)-1H-pyrazolo[3,4-d]pyrimidin-1-yl)-[1,4′-bipiperidine]-1′-carbonyl)piperidin-4-yl)ethyl)piperidin-1-yl)-2-(2,6-dioxopiperidin-3-yl)isoindoline-1,3-dione] | > 10 | > 10 | > 75 | 0.01 to 0.05 |
| Nc1ncnc2c1c(-c1ccc(Oc3ccccc3)cc1)nn2[C@@H]1CCCN(C(=O)N2CCN(CCCC3CCN(c4ccc5c(c4)C(=O)N(C4CCC(=O)NC4=O)C5=O)CC3)CC2)C1 (stereo partly drawn) [Compound 109, 5-(4-(3-(4-((R)-3-(4-amino-3-(4-phenoxyphenyl)-1H-pyrazolo[3,4-d]pyrimidin-1-yl)piperidine-1-carbonyl)piperazin-1-yl)propyl)piperidin-1-yl)-2-(2,6-dioxopiperidin-3-yl)isoindoline-1,3-dione] | > 10 | > 10 | > 75 | > 0.05 |
| Nc1ncnc2c1c(-c1ccc(Oc3ccccc3)cc1)nn2[C@@H]1CCCN(C2CCN(C(=O)N3CCN(CCN4CCC(c5ccc6c(c5)CN(C5CCC(=O)NC5=O)C6=O)CC4)CC3)CC2)C1 (stereo partly drawn) [Compound 180, 3-(5-(1-(2-(4-((R)-3-(4-amino-3-(4-phenoxyphenyl)-1H-pyrazolo[3,4-d]pyrimidin-1-yl)-[1,4′-bipiperidine]-1′-carbonyl)piperazin-1-yl)ethyl)piperidin-4-yl)-1-oxoisoindolin-2-yl)piperidine-2,6-dione] | > 10 | 1 to 10 | > 75 | 0.01 to 0.05 |
